This is an account of results in patent publication EP4763839A1 (Pamplona Therapeutics (Shenzhen) Co., Ltd., priority 2023, dated 2025).

One test has as its target T1, IRAK4 (Homo sapiens, UniProt Q9NWZ3).
T1 sequence (Q9NWZ3 1-460): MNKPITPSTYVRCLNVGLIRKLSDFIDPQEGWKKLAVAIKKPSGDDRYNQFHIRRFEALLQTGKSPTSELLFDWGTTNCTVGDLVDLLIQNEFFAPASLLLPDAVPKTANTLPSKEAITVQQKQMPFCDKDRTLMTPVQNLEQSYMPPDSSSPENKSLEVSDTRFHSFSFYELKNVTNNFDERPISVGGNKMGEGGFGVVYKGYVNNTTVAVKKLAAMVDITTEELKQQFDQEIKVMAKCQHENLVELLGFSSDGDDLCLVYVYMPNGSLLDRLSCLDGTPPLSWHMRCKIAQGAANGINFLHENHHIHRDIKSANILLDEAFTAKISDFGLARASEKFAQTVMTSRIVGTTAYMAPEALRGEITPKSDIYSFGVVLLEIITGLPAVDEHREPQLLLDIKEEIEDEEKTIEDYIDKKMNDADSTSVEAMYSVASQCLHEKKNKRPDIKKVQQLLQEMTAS
The test can be described thus: Assay for inhibitory effect of compound on IRAK4 kinase activity (KinEASE-STK S1 HTRF kit). In kind it is biochemical.
Conditions: not given
In outline: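 HTRF assay: 8 nM IRAK4 preincubated 15 minutes at rt with compound (final 5,000–0.0254 nM, 3-fold dilutions), then 400 nM biotinylated STK1 substrate and 80 µM ATP, 90 minutes at 37°C. Eu-cryptate anti-phospho-Ser/Thr antibody and streptavidin-XL665 detection, 665/620 ratio; IC50 from nonlinear fit of inhibition.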
In the case of `NS(=O)(=O)c1nn(C2CCC2)cc1NC(=O)c1ccn2ncc(-c3ccn[nH]3)c2n1` [Compound A278, N-(1-cyclobutyl-3-sulfonamide-1H-pyrazol-4-yl)-3-(1H-pyrazol-5-yl)pyrazolo[1,5-a]pyrimidine-5-carboxamide], the 50% inhibitory concentration (IC50) is < 100 nM.

The test is the same for the next values; noted with them: kinase 8 nM, ATP 80 µM, 37°C 90 minutes; read-out: IRAK4 HTRF IC50.
In the case of `O=C(Nc1cn(C2CCC2)nc1C(=O)NC1CC1)c1cccc(-c2ccn[nH]2)n1` [Compound A252, N-(1-Cyclobutyl-3-(cyclopropylcarbamoyl)-1H-pyrazol-4-yl)-6-(1H-pyrazol-5-yl)picolinamide], the IC50 is < 100 nM. Regarding `O=C(Nc1cn(C2CNC2)nc1C(=O)NC1CC1)c1cccc(-c2ccn[nH]2)n1` [Compound A253, N-(1-(Azetidin-3-yl)-3-(cyclopropylcarbamoyl)-1H-pyrazol-4-yl)-6-(1H-pyrazol-5-yl)picolinamide], the concentration for half-maximal inhibition (IC50) was < 100 nM.

As to `O=C(Nc1cn(C2CCNC2)nc1C(=O)NC1CC1)c1cccc(-c2ccn[nH]2)n1` (stereo not shown) [Compound A254, N-(3-(Cyclopropylcarbamoyl)-1-(pyrrolidin-3-yl)-1H-pyrazol-4-yl)-6-(1H-pyrazol-5-yl)picolinamide], the concentration for half-maximal inhibition (IC50) was in the range of 100 to 1000 nM. On the same count and under the same terms, the figure for `O=C(Nc1cn(C2CCCCC2)nc1C(=O)NC1CC1)c1cccc(-c2ccn[nH]2)n1` [Compound A255, N-(1-Cyclohexyl-3-(cyclopropylcarbamoyl)-1H-pyrazol-4-yl)-6-(1H-pyrazol-5-yl)picolinamide] is 100 to 1000 nM; for `O=C(Nc1cn(C2CCNCC2)nc1C(=O)NC1CC1)c1cccc(-c2ccn[nH]2)n1` [Compound A256, N-(3-(Cyclopropylcarbamoyl)-1-(piperidin-4-yl)-1H-pyrazol-4-yl)-6-(1H-pyrazol-5-yl)picolinamide] it is < 100 nM.

In the case of `O=C(Nc1cn(-c2cccnc2)nc1C(=O)NC1CC1)c1cccc(-c2ccn[nH]2)n1` [Compound A257, N-(3-(Cyclopropylcarbamoyl)-1-(pyridin-3-yl)-1H-pyrazol-4-yl)-6-(1H-pyrazol-5-yl)picolinamide], the IC50 is < 100 nM. On the same count and under the same terms, the figure for `NC(=O)c1nn(C23CC(C2)C3)cc1NC(=O)c1cccc(C(F)(F)F)n1` [Compound A258] is 100 to 1000 nM; for `CC(C)(O)c1nn(C2CCCCC2)cc1NC(=O)c1ccc2cc(C#N)cnn12` [Compound A259, 3-cyano-N-(1-cyclohexyl-3-(2-hydroxypropan-2-yl)-1H-pyrazol-4-yl)pyrrolo[1,2-b]pyridazine-7-carboxamide] it is 100 to 1000 nM; for `NS(=O)(=O)c1nn(C2CCCCC2)cc1NC(=O)c1cccc(-c2ccn[nH]2)n1` [Compound A260, N-(1-Cyclohexyl-3-sulfamoyl-1H-pyrazol-4-yl)-6-(1H-pyrazol-5-yl)picolinamide] it is < 100 nM. On the same count and under the same terms, as for `NS(=O)(=O)c1nn(-c2ccccc2)cc1NC(=O)c1cccc(-n2ccnc2)n1` [Compound A261, 6-(1H-Imidazol-1-yl)-N-(1-phenyl-3-sulfamoyl-1H-pyrazol-4-yl)picolinamide], the figure is < 100 nM; as for `COc1nn(-c2ccccc2)cc1NC(=O)c1cccc(C(=O)c2cn[nH]c2)n1` [Compound A262, N-(3-methoxy-1-phenyl-1H-pyrazol-4-yl)-6-(1H-pyrazole-4-carbonyl)picolinamide], < 100 nM. Still for that read-out and setting: the figure for `COc1nn(C2CCCCC2)cc1NC(=O)c1cccc(-c2ccn[nH]2)n1` [Compound A263, N-(1-Cyclohexyl-3-methoxy-1H-pyrazol-4-yl)-6-(1H-pyrazol-5-yl)picolinamide] is 100 to 1000 nM; for `CC(F)(F)c1cccc(C(=O)Nc2cn(-c3ccccc3)nc2C(N)=O)n1` [Compound A264] it is 100 to 1000 nM; for `CC(F)(F)c1cccc(C(=O)Nc2cn(-c3ccccc3)nc2C(=O)NC2CC2)n1` [Compound A265, N-(3-(Cyclopropylcarbamoyl)-1-phenyl-1H-pyrazol-4-yl)-6-(1,1-difluoroethyl)picolinamide] it is 100 to 1000 nM.

With `N#Cc1cnn2c(C(=O)Nc3cn(C4CCCCC4)nc3C(F)F)ccc2c1` [Compound A266, 3-cyano-N-(1-cyclohexyl-3-(difluoromethyl)-1H-pyrazol-4-yl)pyrrolo[1,2-b]pyridazine-7-carboxamide], the IC50 was in the range of 100 to 1000 nM. The same measure, in the same setting: as for `O=C(Nc1cn(C2CCC2)nc1C(F)F)c1ccn2ncc(-c3ccn[nH]3)c2n1` [Compound A279, N-(1-cyclobutyl-3-(difluoromethyl)-1H-pyrazol-4-yl)-3-(1H-pyrazol-5-yl)pyrazolo[1,5-a]pyrimidine-5-carboxamide], the figure is 100 to 1000 nM; as for `NC(=O)c1nn(C2CCC2)cc1NC(=O)c1ccn2ncc(-c3ccn[nH]3)c2n1` [Compound A280, N-(3-carbamoyl-1-cyclobutyl-1H-pyrazol-4-yl)-3-(1H-pyrazol-5-yl)pyrazolo[1,5-a]pyrimidine-5-carboxamide], 100 to 1000 nM; as for `CC(C)(O)c1nn(C2CCC2)cc1NC(=O)c1ccn2ncc(-c3ccn[nH]3)c2n1` [Compound A281, N-(1-cyclobutyl-3-(2-hydroxypropan-2-yl)-1H-pyrazol-4-yl)-3-(1H-pyrazol-5-yl)pyrazolo[1,5-a]pyrimidine-5-carboxamide], 100 to 1000 nM. Same read-out and setting: as for `O=C(NC1CC1)c1nn(C2CCC2)cc1NC(=O)c1cnn2ccc(-c3ccn[nH]3)nc12` [Compound A286, N-(1-cyclobutyl-3-(cyclopropylcarbamoyl)-1H-pyrazol-4-yl)-5-(1H-pyrazol-5-yl)pyrazolo[1,5-a]pyrimidine-3-carboxamide], the figure is 100 to 1000 nM. On the same count and under the same terms, the figure for `O=C(NC1CC1)c1nn(C2CCC2)cc1NC(=O)c1cnn2ccc(-c3cn[nH]c3)nc12` [Compound A287] is 100 to 1000 nM; for `COc1nn(C2CCC2)cc1NC(=O)c1cnn2ccc(-c3ccn[nH]3)nc12` [Compound A288, N-(1-cyclobutyl-3-methoxy-1H-pyrazol-4-yl)-5-(1H-pyrazol-5-yl)pyrazolo[1,5-a]pyrimidine-3-carboxamide] it is < 100 nM. Consider `COc1nn(C2CCC2)cc1NC(=O)c1cnn2ccc(-c3cn[nH]c3)nc12` [Compound A289, N-(1-cyclobutyl-3-methoxy-1H-pyrazol-4-yl)-5-(1H-pyrazol-4-yl)pyrazolo[1,5-a]pyrimidine-3-carboxamide], for which the IC50 is < 100 nM. The same measure, in the same setting: the figure for `CC(C)(O)c1nn(C2CCC2)cc1NC(=O)c1cnn2ccc(-c3ccn[nH]3)nc12` [Compound A290, N-(1-cyclobutyl-3-(2-hydroxypropan-2-yl)-1H-pyrazol-4-yl)-5-(1H-pyrazol-5-yl)pyrazolo[1,5-a]pyrimidine-3-carboxamide] is 100 to 1000 nM; for `O=C(Nc1cn(C2CCC2)nc1C(F)F)c1cnn2ccc(-c3ccn[nH]3)nc12` [Compound A291, N-(1-cyclobutyl-3-(difluoromethyl)-1H-pyrazol-4-yl)-5-(1H-pyrazol-5-yl)pyrazolo[1,5-a]pyrimidine-3-carboxamide] it is < 100 nM; for `NC(=O)c1nn(C2CCC2)cc1NC(=O)c1cnn2ccc(-c3ccn[nH]3)nc12` [Compound A292, N-(3-Carbamoyl-1-cyclobutyl-1H-pyrazol-4-yl)-5-(1H-pyrazol-5-yl)pyrazolo[1,5-a]pyrimidine-3-carboxamide] it is < 100 nM. On the same count and under the same terms, the figure for `NS(=O)(=O)c1nn(C2CCC2)cc1NC(=O)c1cnn2ccc(-c3ccn[nH]3)nc12` [Compound A293, N-(1-cyclobutyl-3-sulfamoyl-1H-pyrazol-4-yl)-5-(1H-pyrazol-5-yl)pyrazolo[1,5-a]pyrimidine-3-carboxamide] is < 100 nM; for `NC(=O)c1nn(-c2ccccc2)cc1NC(=O)c1cccc(-c2nc[nH]n2)n1` [Compound A457, N-(3-Carbamoyl-1-phenyl-1H-pyrazol-4-yl)-6-(1H-1,2,4-triazol-3-yl)picolinamide] it is 100 to 1000 nM.
